Tests used:
ICR mice = assay: acute intravenous toxicity (LD50) in ICR mice, 7-day observation; format: in vivo; settings: for Deaths, Delayed (1-24 hr) / Deaths, Delayed (1-7 days) / Deaths, Immediate (0-1 hr) / Deaths, Total / Body Weight Change: 0.68 M; for Deaths, Total: deaths/animals
Procedure: The acute intravenous toxicity of the compound of Example II was determined as follows: ICR mice, at 1 to 4 per dose level, received single intravenous injections of the test substance via a lateral tail vein at the rate of approximately 1 ml/minute. The test substances were at concentrations chosen to result in dose volumes of 5 to 75 ml/kg body weight. Dosing began at a volume of 10 ml/kg. Dose adjustments up or down were made to closely bracket the estimated LD50 with 4 animals per group (2 males and 2 females). Observations of the mice were recorded at times 0, 0.5, 1,2,4 and 24 hours and once daily thereafter for up to 7 days post injection. On the 7th day post injection, the mice were euthanized, weighed and necropsied. Abnormal tissues were noted. At this time a decision was made as to whether any histopathology was to be performed and whether or not the tissues should be retained. Necropsies were also performed on mice expiring after 24 hours post-injection, except for dead mice found on the weekends. The LD50 values, along with 95% CI were calculated using a modified Behrens-Reed-Meunch method. The results for the complex of Example II are reported below:
Sex and Weight Range of Mice: Males(18.0-20.3 g) Females (19.0-21.7 g).

[1] = T1 and T2 relaxivity, RADX (10 megahertz) NMR analyzer, 37° C.; format: physicochemical
Procedure: T1 and T2 relaxivity curves of the complex of Example II were obtained using a RADX (10 megahertz) NMR analyzer. The RADX analyzer was thermally stabilized at 37° C. before performing any T1 or T2 measurements. Overall range tuning and mid-range calibration were performed on a 37° C. warmed T1 standard at the beginning of the experiment, according to manufacturer's instructions. Subsequent to calibration, T1 standards were tested to verify calibration and linearity.
Ten millimolar solutions of the complex were prepared in sterile water for injection ("SWFI") and in 4% human serum albumin ("HSA")/0.9% NaCl. A series of lower concentrations (0.25, 0.50, 1.0, 2.5 and 5.0 mM) were prepared to form a concentration curve. A sample of each prepared concentration was warmed to 37° C. in an NMR sample tube prior to assay. Triplicate T1 and T2 values were obtained on each dilution.
Separate linear regressions were determined using the reciprocal T1 and T2 mean values for the complex diluted in SWFI and 4% HSA. The relaxivity curves were generated by plotting the reciprocal T1 or T2 value against concentration. The following relaxation rates were determined for the complex of Example II: […]

solubility in water = format: physicochemical; settings: glassy solid
Procedure: A 15% excess of the bis(2-methoxyethylamide) of EDTA produced by the procedure described in Example XI (1.1 g, 0.0026 mol) was dissolved in water (10 ml) and MnCO3 (0.27 g, 0.0023 mol) was added. Upon warming for 30 minutes, the solution became homogeneous. The solution was taken to dryness under reduced pressure.

COCCNC(=O)CN(CCN(CCN(CC(=O)[O-])CC(=O)NCCOC)CC(=O)[O-])CC(=O)[O-].[Gd+3] [Example II, {N,N"-Bis[N-(2-methoxyethyl)-carbamoylmethyl]diethylenetriamine-N,N',N"-triaceto}gadolinium (III)]
Deaths, Delayed (1-24 hr) (ICR mice; 6.8 mmol/kg i.v., ICR mice): 0 | Deaths, Delayed (1-7 days) (ICR mice; 6.8 mmol/kg i.v., ICR mice): 0 | Deaths, Immediate (0-1 hr) (ICR mice; 6.8 mmol/kg i.v., ICR mice): 0 | Deaths, Total (ICR mice; 6.8 mmol/kg i.v., ICR mice): 0/2 | Body Weight Change (ICR mice; 6.8 mmol/kg i.v., female ICR mice): +2.1 g | Body Weight Change (ICR mice; 6.8 mmol/kg i.v., male ICR mice): -1.1 g | Deaths, Delayed (1-24 hr) (ICR mice; 13.6 mmol/kg i.v., ICR mice): 0 | Deaths, Delayed (1-7 days) (ICR mice; 13.6 mmol/kg i.v., ICR mice): 0 | Deaths, Immediate (0-1 hr) (ICR mice; 13.6 mmol/kg i.v., ICR mice): 0 | Deaths, Total (ICR mice; 13.6 mmol/kg i.v., ICR mice): 0/2 | Body Weight Change (ICR mice; 13.6 mmol/kg i.v., female ICR mice): +1.4 g | Body Weight Change (ICR mice; 13.6 mmol/kg i.v., male ICR mice): +1.6 g | Deaths, Delayed (1-24 hr) (ICR mice; 20.4 mmol/kg i.v., ICR mice): 0 | Deaths, Delayed (1-7 days) (ICR mice; 20.4 mmol/kg i.v., ICR mice): 0 | Deaths, Immediate (0-1 hr) (ICR mice; 20.4 mmol/kg i.v., ICR mice): 1 | Deaths, Total (ICR mice; 20.4 mmol/kg i.v., ICR mice): 1/4 | Body Weight Change (ICR mice; 20.4 mmol/kg i.v., female ICR mice): -3.2 g | Body Weight Change (ICR mice; 20.4 mmol/kg i.v., male ICR mice): -1.1 g | Deaths, Delayed (1-24 hr) (ICR mice; 27.2 mmol/kg i.v., ICR mice): 0 | Deaths, Immediate (0-1 hr) (ICR mice; 27.2 mmol/kg i.v., ICR mice): 2 | Deaths, Total (ICR mice; 27.2 mmol/kg i.v., ICR mice): 4/4 | Deaths, Immediate (0-1 hr) (ICR mice; 34.0 mmol/kg i.v., ICR mice): 4 | Deaths, Total (ICR mice; 34.0 mmol/kg i.v., ICR mice): 4/4 | body weight gain of surviving mice (ICR mice; 7-day post-injection period, i.v., ICR mice): failed to gain weight | 95% Confidence Limits of LD50 (ICR mice; ICR mice, single i.v., 7 days): 17.4 to 29.0 mmol/kg | LD50 (ICR mice; ICR mice, single i.v., 7 days post injection, modified Behrens-Reed-Meunch method): 22.5 mmol/kg | gross organ abnormality at necropsy (ICR mice; one female dosed with 20.4 mmol/kg i.v.): a "pale" colored liver | gross organ abnormality at necropsy, other mice (ICR mice; other mice at 20.4 mmol/kg or lower, i.v.): No other mice at 20.4 mmol/kg or lower showed similar abnormalities | order of i.v. toxicity (ICR mice; preliminary tests, ICR mice): low order of i.v. toxicity | T1 Relaxation Rate ([1]; 4% HSA/0.9% NaCl): 4400 M⁻¹ s⁻¹ | T2 Relaxation Rate ([1]; 4% HSA/0.9% NaCl): 6380 M⁻¹ s⁻¹ | T1 Relaxation Rate ([1]; H2O (SWFI)): 4690 M⁻¹ s⁻¹ | T2 Relaxation Rate ([1]; H2O (SWFI)): 4810 M⁻¹ s⁻¹

COCCNC(=O)CN(CCN(CC(=O)[O-])CC(=O)NCCOC)CC(=O)[O-].[Mn+2] [Example X, {N,N'-Bis[N-(2-methoxyethyl)carbamoyl-methyl]-ethylenediamine-N,N'-diaceto}manganese(II)]
solubility in water (solubility in water): very soluble in water

— patent US5130120A, “Paramagnetic DTPA and EDTA alkoxyalkylamide complexes as MRI agents” (Mallinckrodt Medical, Inc., priority 1988, dated 1992)
